One may read the IC50 as the point on the concentration scale where inhibition reaches its midpoint.

The record followed here is US9890139B2, “CYP17 inhibitors/antiandrogens” (Orion Corporation, priority 2013, dated 2018).

For the test, the target named is T1, full-length human AR (Homo sapiens, UniProt P10275).
T1 construct: expression vector encoding full-length human AR; expressed in transfected cells; host or cells: HEK293 (hAR/HEK293 cells)
T1 sequence (P10275 1-920): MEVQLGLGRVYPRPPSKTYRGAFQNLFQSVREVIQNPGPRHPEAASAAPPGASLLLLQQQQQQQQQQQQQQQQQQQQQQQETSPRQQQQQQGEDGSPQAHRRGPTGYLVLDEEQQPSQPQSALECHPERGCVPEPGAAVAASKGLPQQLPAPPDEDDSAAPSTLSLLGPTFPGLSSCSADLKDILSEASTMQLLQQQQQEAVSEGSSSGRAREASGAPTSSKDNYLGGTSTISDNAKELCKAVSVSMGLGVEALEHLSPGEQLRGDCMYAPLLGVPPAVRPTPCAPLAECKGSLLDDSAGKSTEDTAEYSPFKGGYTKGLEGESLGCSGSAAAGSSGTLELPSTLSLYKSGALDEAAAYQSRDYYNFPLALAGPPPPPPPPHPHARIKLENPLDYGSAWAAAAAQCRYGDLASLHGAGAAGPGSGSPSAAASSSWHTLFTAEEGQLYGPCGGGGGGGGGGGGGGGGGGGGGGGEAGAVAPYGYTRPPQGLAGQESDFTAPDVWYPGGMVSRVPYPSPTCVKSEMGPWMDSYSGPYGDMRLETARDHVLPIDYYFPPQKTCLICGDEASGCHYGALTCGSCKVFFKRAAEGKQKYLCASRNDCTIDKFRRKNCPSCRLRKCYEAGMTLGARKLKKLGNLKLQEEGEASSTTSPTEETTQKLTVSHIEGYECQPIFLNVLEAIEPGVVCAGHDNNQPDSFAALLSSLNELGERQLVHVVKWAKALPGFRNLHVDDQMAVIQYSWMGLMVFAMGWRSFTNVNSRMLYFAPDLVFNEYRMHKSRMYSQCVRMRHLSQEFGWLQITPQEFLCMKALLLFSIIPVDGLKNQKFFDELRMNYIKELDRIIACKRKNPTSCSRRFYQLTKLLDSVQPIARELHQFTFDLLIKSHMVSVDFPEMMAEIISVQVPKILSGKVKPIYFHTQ
As to the kind of experiment: AR antagonism, reporter gene assay in hAR/HEK293 cells. The format is cell-based. To be noted: HEK293 cells stably transfected with full-length human AR and androgen responsive luciferase reporter; co-treated with submaximal testosterone (usually 0.45 nM); 1% DMSO; triplicates. On the procedure: Antagonism of test compounds for AR was measured by reporter gene assay in human embryonic kidney (HEK293) cells stably transfected with an expression vector encoding full-length human AR and androgen responsive luciferase reporter gene construct (hAR/HEK293 cells). To determine antagonism for hAR, the cells were treated simultaneously with increasing concentrations of the test compound and submaximal concentration of testosterone (usually 0.45 nM). The final DMSO concentration was 1%. All test compounds were studied in triplicates. The cells were incubated for […] before measurement of luciferase activity using Luciferase Assay System (Promega Corporation).
Background: Reporter assays use an easily measured gene product as a stand-in for the process of interest.

`CN(c1ccc(C#N)c(C(F)(F)F)c1)[C@@H]1C=C(n2ccnc2)[C@@H](O)CC1(C)C` [Ex. 262, 4-(((1R,4S)-4-hydroxy-3-(1H-imidazol-1-yl)-6,6-dimethylcyclohex-2-en-1-yl)(methyl)-amino)-2-(trifluoromethyl)benzonitrile]: the IC50 worked out at 89 nM.
Regarding `CCN(c1ccc(C#N)c(C(F)(F)F)c1)C1CCCC(n2ccnc2)C1` (single isomer, unassigned) [Ex. 72 cis-enantiomer 2, 4-((3-(1H-imidazol-1-yl)cyclohexyl)(ethyl)amino)-2-(trifluoromethyl)benzonitrile], the IC50 was 27 nM.
As for `CCN(c1ccc(C#N)c(C(F)(F)F)c1)C1C=C(n2cncn2)CCC1` (stereo not shown) [Ex. 210, 4-((3-(1H-1,2,4-triazol-1-yl)cyclohex-2-en-1-yl)(ethyl)amino)-2-(trifluoromethyl)benzonitrile], the figure is 23 nM.
As to `CCN(c1ccc(C#N)c(C(F)(F)F)c1)C1CCCC(n2ccnn2)C1` (stereo not drawn) [Ex. 223, 4-((3-(1H-1,2,3-triazol-1-yl)cyclohexyl)(ethyl)amino)-2-(trifluoromethyl)-benzonitrile (cis-diastereomer)], the IC50 amounted to 79 nM.
As for `CCN(c1ccc(C#N)c(Cl)c1)C1CCCC(c2cccnc2)C1` (single isomer, unassigned; diastereomer 2) [Ex. 76 cis-diastereomer, 2-Chloro-4-(ethyl(3-(pyridin-3-yl)cyclohexyl)amino)benzonitrile], the figure is 1 nM.
With `CCN(c1ccc(C#N)c(Cl)c1)C1CCCC(c2cncc(OC)c2)C1` (single isomer, unassigned; diastereomer 2) [Ex. 83 cis-diastereomer, 2-Chloro-4-(ethyl(3-(5-methoxypyridin-3-yl)cyclohexyl)amino)benzonitrile], the IC50 turned out to be 16 nM.
In the case of `CCN(c1ccc(C#N)c(C(F)(F)F)c1)C1CCCC(n2cccn2)C1` (single isomer, unassigned; diastereomer 4) [Ex. 48 cis-diastereomer, 4-((-3-(1H-Pyrazol-1-yl)cyclohexyl)(ethyl)amino)-2-(trifluoromethyl)benzonitrile] it was 24 nM.
For the compound `CCN(c1ccc(C#N)c(C(F)(F)F)c1)C1CCC=C(c2ccncc2)C1` (stereo not shown) [Ex. 77, 4-(Ethyl(3-(pyridin-4-yl)cyclohex-3-en-1-yl)amino)-2-(trifluoromethyl)benzonitrile], the IC50 came out at 40 nM.
In the case of `CN(c1ccc(C#N)c(C(F)(F)F)c1)C1C=C(c2cncs2)CCC1` (single isomer, unassigned) [Ex. 232 enantiomer 1, 4-(Methyl(3-(thiazol-5-yl)cyclohex-2-en-1-yl)amino)-2-(trifluoromethyl)-benzonitrile] it was 33 nM; in that of `CCN(c1ccc(C#N)c(C(F)(F)F)c1)C1CCCC(c2nnco2)C1` (single isomer, unassigned; diastereomer 4) [Ex. 19 cis-diastereomer, 4-((3-(1,3,4-Oxadiazol-2-yl)cyclohexyl)(ethyl)amino)-2-(trifluoromethyl)benzonitrile], 65 nM; in that of `CCN(c1ccc(C#N)c(C(F)(F)F)c1)C1CC=C(c2cnco2)C1` (single isomer, unassigned) [Ex. 233 enantiomer 2, 4-(Ethyl(3-(oxazol-5-yl)cyclopent-3-enyl)amino)-2-(trifluoromethyl)benzonitrile], 29 nM.
In the case of `CCN(c1cc(F)c(C#N)c(Cl)c1)C1CCC=C(c2cccnc2)C1` (stereo not shown) [Ex. 132, 2-Chloro-4-(ethyl(3-(pyridin-3-yl)cyclohex-3-en-1-yl)amino)-6-fluorobenzonitrile] it was 7 nM.
Take `CCN(c1ccc(C#N)c(C(F)(F)F)c1)C1CCCC(c2nnn(C)n2)C1` (single isomer, unassigned; isomer 4) [Ex. 11 cis of 2,5-isomer, 4-(Ethyl(3-(2-methyl-2H-tetrazol-5-yl)cyclohexyl)amino)-2-(trifluoromethyl)benzonitrile]: the IC50 worked out at 26 nM.
